The values below come from ChEMBL document CHEMBL1153023, “Lathyrane diterpenes from Euphorbia lathyris as modulators of multidrug resistance and their crystal structures” (Bioorg Med Chem, 2009).

Data set [1] concerns MCF7. Description: Cytotoxicity against human MCF7 cells after 48 hrs by SRB assay. It is filed as cell-based. Conditions: mcf7, 48 h; call rule not given here.
Data set [2] concerns MCF7/ADM. The data set can be described thus: Reversal of p-gp-mediated multidrug-resistance in human MCF7/ADM cells assessed as enhancement intensity at 10 ug/mL after 48 hrs by SRB assay relative to adriamycin. It is filed as cell-based.
The nature of data set [3]: Reversal of p-gp-mediated multidrug-resistance in human MCF7/ADM cells after 48 hrs by SRB assay. It is filed as cell-based.
Data set [4] deals with MCF/ADR. The data set can be described thus: Reversal of P-gp-mediated multidrug resistance in human MCF/ADR cells assessed as reversal fold after 48 hrs by SRB assay relative to control. Format: cell-based.
The nature of data set [5]: Octanol-water partition coefficient, log P of the compound. It is filed as physicochemical.

Consider `C=C1[C@@H](OC(=O)c2ccccc2)C[C@H]2[C@@H](/C=C(\C)C(=O)[C@@]3(OC(C)=O)C[C@H](C)[C@H](OC(=O)c4ccccc4)[C@@H]3[C@H]1OC(C)=O)C2(C)C`, for which the figures for the Activity result in data set [1] and in data set [2] were “Not Active” and 34%, respectively. The IC50 in data set [3] is 84.3 µg/mL. For the same compound, the Ratio IC50 in data set [4] worked out at 12.8. This compound gave a logP in data set [5] of 7.9.
Consider `C=C1CC[C@H]2[C@@H](/C=C(\C)C(=O)[C@@]3(OC(C)=O)C[C@H](C)[C@H](OC(=O)c4ccccc4)[C@@H]3[C@H]1OC(C)=O)C2(C)C`, for which the Activity in data set [2] came out at 25%. For the same compound, in data set [3], the concentration for half-maximal inhibition (IC50) amounted to 165 µg/mL. The Ratio IC50 in data set [4] is 6.57. The compound further displayed a logP in data set [5] of 6.4.
As for `CC(=O)O[C@@H]1[C@H]2[C@@H](OC(=O)Cc3ccccc3)[C@@H](C)C[C@]2(OC(C)=O)C(=O)/C(C)=C/[C@@H]2[C@H](CC[C@]13CO3)C2(C)C`, the Activity result in data set [1] was “Not Active”; in data set [2], 22%. The IC50 in data set [3] was determined as 246 µg/mL. The Ratio IC50 in data set [4] was found to be 4.4. The logP in data set [5] is 5.6.
For `CC(=O)OC/C1=C/[C@H]2[C@@H](OC(=O)/C=C/c3ccccc3)[C@@H](C)C[C@]2(OC(C)=O)C(=O)/C(C)=C/[C@@H]2[C@H](CC1)C2(C)C` (relative stereo) the same measures were “Not Active”, 54%, 105 µg/mL, 10.3 and 5.8.
In the same order, the values of `CC(=O)OC/C1=C\C[C@H]2[C@@H](/C=C(\C)C(=O)[C@@]3(OC(C)=O)C[C@H](C)[C@H](OC(=O)c4ccccc4)[C@@H]3[C@H]1OC(C)=O)C2(C)C` (relative stereo) are “Not Active”, 15%, 248 µg/mL, 4.36 and 6.1.
Regarding `COc1ccc(CCN(C)CCCC(C#N)(c2ccc(OC)c(OC)c2)C(C)C)cc1OC` (configuration not stated) [VERAPAMIL], the Activity in data set [2] worked out at 19%. The IC50 in data set [3] is 367 µg/mL. The Ratio IC50 in data set [4] turned out to be 2.95.
